Reference: US6992079B2, “Substituted 11-phenyl-dibenzazepine compounds useful for the treatment or prevention of diseases characterized by abnormal cell proliferation” (President Fellows of Harvard College, priority 1997, dated 2006)
Like-named read-outs stand apart in the source and are kept apart here.

Legend:
[1] = tested on: NIH 3T3 mouse fibroblast cells; experiment: Mitogenic assay (mitogen-induced cell proliferation); type: cell-based; settings: Mus musculus, NIH3T3, 10 μM compound
MDA-MB-23 = experiment: SRB antiproliferative assay; type: cell-based; settings: Homo sapiens; MDA-MB-23 (Breast); SRB; 5% FCS/5 day incubation; read-out: IC50
Description: (§1) The cells were passaged using Trypsin (Gibco).

MMRU = experiment: SRB antiproliferative assay; type: cell-based; settings: Homo sapiens, MMRU (Melanoma), 5% FCS/5 day incubation
Description: as §1

[2] = tested on: squamous cell carcinoma (KLN-205) cells; experiment: Tumor growth in murine squamous cell carcinoma model; type: in vivo, mouse; settings: KLN-205; subcutaneous injection or oral administration of 80 mg/kg/day for 30 days
[3] = tested on: panel of human cancer cells; experiment: In vitro screening, SRB, panel of 60 human cancer cell lines; type: cell-based
A549/ATCC = type: cell-based
NCI-H460 = type: cell-based; settings: NCI-H460
NCI-H522 = type: cell-based; settings: NCI-H522
HCT-15 = experiment: In-Vitro Testing SRB panel: Colon Cancer; type: cell-based; settings: HCT-15
SF-295 = experiment: In-Vitro Testing SRB panel: CNS Cancer; type: cell-based; settings: SF-295
SNB-75 = experiment: In-Vitro Testing SRB panel: CNS Cancer; type: cell-based; settings: SNB-75
SK-MEL-2 = experiment: In-Vitro Testing SRB panel: Melanoma; type: cell-based; settings: SK-MEL-2
SK-MEL-5 = experiment: In-Vitro Testing SRB panel: Melanoma; type: cell-based; settings: SK-MEL-5
OVCAR-4 = experiment: In-Vitro Testing SRB panel: Ovarian Cancer; type: cell-based; settings: OVCAR-4
OVCAR-5 = experiment: In-Vitro Testing SRB panel: Ovarian Cancer; type: cell-based; settings: OVCAR-5
A498 = experiment: In-Vitro Testing SRB panel: Renal Cancer; type: cell-based; settings: A498
PC-3 = experiment: In-Vitro Testing SRB panel: Prostate Cancer; type: cell-based; settings: PC-3
DU-145 = experiment: In-Vitro Testing SRB panel: Prostate Cancer; type: cell-based; settings: DU-145
MC-F7 = experiment: In-Vitro Testing SRB panel: Breast Cancer; type: cell-based
MDA-N = experiment: In-Vitro Testing SRB panel: Breast Cancer; type: cell-based
[4] = Homo sapiens, read-out: LC50 (the source's name)

`COc1cccc2c1C(c1ccccc1Cl)c1cc(Cl)ccc1N(C(=O)c1ccc([N+](=O)[O-])cc1)C2` (centres unmarked) [Compound 31] gave an inhibition at 10 µM [1] of 99%, an IC50 (MDA-MB-23) of 0.4 µM and an IC50 (MMRU) of 0.2 µM. The tumor growth [2] was “significantly inhibited tumor growth”, the “activity against the human cell panel” value [3] was “exhibited activity against the human cell panel” and the TGI (A549/ATCC; A549/ATCC) was greater than 1.00E−04 Molar. The “Percent Growth” value (A549/ATCC; A549/ATCC, log10 conc -4 Molar) was 3%, the “Percent Growth” value (A549/ATCC; A549/ATCC, log10 conc -5 Molar) was 11% and the “Percent Growth” value (A549/ATCC; A549/ATCC, log10 conc -6 Molar) was 61%. For the same compound, the “Percent Growth” value (A549/ATCC; A549/ATCC, log10 conc -7 Molar) was 98%, the “Percent Growth” value (A549/ATCC; A549/ATCC, log10 conc -8 Molar) was 94% and the GI50 (A549/ATCC; Homo sapiens, A549) was 1.67 µM. It also gave a CC50 (A549/ATCC; Homo sapiens, A549/ATCC, read-out: LC50 (the source's name)) greater than 100 µM, a GI50 (NCI-H460; Homo sapiens) of 0.595 µM and a CC50 (NCI-H460; [4]) greater than 100 µM. The TGI (NCI-H460) was 2.81E−05 Molar, the “Percent Growth” value (NCI-H460; log10 conc -4 Molar) was −16% and the “Percent Growth” value (NCI-H460; log10 conc -5 Molar) was 10%. The “Percent Growth” value (NCI-H460; log10 conc -6 Molar) was 36%, the “Percent Growth” value (NCI-H460; log10 conc -7 Molar) was 99% and the “Percent Growth” value (NCI-H460; log10 conc -8 Molar) was 96%. For the same compound, the GI50 (NCI-H522; Homo sapiens) was 7.48 µM, the CC50 (NCI-H522; [4]) was greater than 100 µM and the TGI (NCI-H522) was greater than 1.00E−04 Molar. The “Percent Growth” value (NCI-H522; log10 conc -4 Molar) was 36%, the “Percent Growth” value (NCI-H522; log10 conc -5 Molar) was 44% and the “Percent Growth” value (NCI-H522; log10 conc -6 Molar) was 89%. The “Percent Growth” value (NCI-H522; log10 conc -7 Molar) was 88%, the “Percent Growth” value (NCI-H522; log10 conc -8 Molar) was 99% and the TGI (HCT-15) was greater than 1.00E−04 Molar. For the same compound, the “Percent Growth” value (HCT-15; log10 conc -4 Molar) was 15%, the “Percent Growth” value (HCT-15; log10 conc -5 Molar) was 20% and the “Percent Growth” value (HCT-15; log10 conc -6 Molar) was 34%. For the same compound, the “Percent Growth” value (HCT-15; log10 conc -7 Molar) was 79%, the “Percent Growth” value (HCT-15; log10 conc -8 Molar) was 96% and the GI50 (HCT-15; Homo sapiens) was 0.444 µM. For the same compound, the CC50 (HCT-15; [4]) was greater than 100 µM, the GI50 (SF-295; Homo sapiens) was 13.5 µM and the CC50 (SF-295; [4]) was greater than 100 µM. For the same compound, the TGI (SF-295) was greater than 1.00E−04 Molar, the “Percent Growth” value (SF-295; log10 conc -4 Molar) was 34% and the “Percent Growth” value (SF-295; log10 conc -5 Molar) was 52%. The “Percent Growth” value (SF-295; log10 conc -6 Molar) was 75%, the “Percent Growth” value (SF-295; log10 conc -7 Molar) was 98% and the “Percent Growth” value (SF-295; log10 conc -8 Molar) was 97%. It also gave a GI50 (SNB-75; Homo sapiens) of 5.9 µM, a CC50 (SNB-75; [4]) greater than 100 µM and a TGI (SNB-75) of 6.40E−05 Molar. The “Percent Growth” value (SNB-75; log10 conc -4 Molar) was −11%, the “Percent Growth” value (SNB-75; log10 conc -5 Molar) was 44% and the “Percent Growth” value (SNB-75; log10 conc -6 Molar) was 82%. The “Percent Growth” value (SNB-75; log10 conc -7 Molar) was 100%, the “Percent Growth” value (SNB-75; log10 conc -8 Molar) was 103% and the GI50 (SK-MEL-2; Homo sapiens) was 79.3 µM. For the same compound, the CC50 (SK-MEL-2; [4]) was greater than 100 µM, the TGI (SK-MEL-2) was greater than 1.00E−04 Molar and the “Percent Growth” value (SK-MEL-2; log10 conc -4 Molar) was 47%. The “Percent Growth” value (SK-MEL-2; log10 conc -5 Molar) was 78%, the “Percent Growth” value (SK-MEL-2; log10 conc -6 Molar) was 102% and the “Percent Growth” value (SK-MEL-2; log10 conc -7 Molar) was 99%. The “Percent Growth” value (SK-MEL-2; log10 conc -8 Molar) was 101%, the GI50 (SK-MEL-5; Homo sapiens) was 0.597 µM and the CC50 (SK-MEL-5; [4]) was greater than 100 µM. The TGI (SK-MEL-5) was greater than 1.00E−04 Molar, the “Percent Growth” value (SK-MEL-5; log10 conc -4 Molar) was 17% and the “Percent Growth” value (SK-MEL-5; log10 conc -5 Molar) was 27%. For the same compound, the “Percent Growth” value (SK-MEL-5; log10 conc -6 Molar) was 41%, the “Percent Growth” value (SK-MEL-5; log10 conc -7 Molar) was 81% and the “Percent Growth” value (SK-MEL-5; log10 conc -8 Molar) was 94%. The GI50 (OVCAR-4; Homo sapiens) was 1.83 µM, the CC50 (OVCAR-4; [4]) was greater than 100 µM and the TGI (OVCAR-4) was 8.34E−05 Molar. For the same compound, the “Percent Growth” value (OVCAR-4; log10 conc -4 Molar) was −1%, the “Percent Growth” value (OVCAR-4; log10 conc -5 Molar) was 16% and the “Percent Growth” value (OVCAR-4; log10 conc -6 Molar) was 62%. For the same compound, the “Percent Growth” value (OVCAR-4; log10 conc -7 Molar) was 83%, the “Percent Growth” value (OVCAR-4; log10 conc -8 Molar) was 91% and the GI50 (OVCAR-5; Homo sapiens) was 91.7 µM. For the same compound, the CC50 (OVCAR-5; [4]) was greater than 100 µM, the TGI (OVCAR-5) was greater than 1.00E−04 Molar and the “Percent Growth” value (OVCAR-5; log10 conc -4 Molar) was 49%. The “Percent Growth” value (OVCAR-5; log10 conc -5 Molar) was 70%, the “Percent Growth” value (OVCAR-5; log10 conc -6 Molar) was 82% and the “Percent Growth” value (OVCAR-5; log10 conc -7 Molar) was 102%. For the same compound, the “Percent Growth” value (OVCAR-5; log10 conc -8 Molar) was 101%, the TGI (A498) was 6.86E−06 Molar and the “Percent Growth” value (A498; log10 conc -4 Molar) was −32%. The “Percent Growth” value (A498; log10 conc -5 Molar) was −11%, the “Percent Growth” value (A498; log10 conc -6 Molar) was 55% and the “Percent Growth” value (A498; log10 conc -7 Molar) was 93%. The “Percent Growth” value (A498; log10 conc -8 Molar) was 93%, the GI50 (A498; Homo sapiens) was 1.19 µM and the CC50 (A498; [4]) was greater than 100 µM. It also gave a GI50 (PC-3; Homo sapiens) of 0.334 µM, a CC50 (PC-3; [4]) greater than 100 µM and a TGI (PC-3) of 7.30E−06 Molar. For the same compound, the “Percent Growth” value (PC-3; log10 conc -4 Molar) was −26%, the “Percent Growth” value (PC-3; log10 conc -5 Molar) was −6% and the “Percent Growth” value (PC-3; log10 conc -6 Molar) was 35%. For the same compound, the “Percent Growth” value (PC-3; log10 conc -7 Molar) was 66%, the “Percent Growth” value (PC-3; log10 conc -8 Molar) was 91% and the TGI (DU-145) was greater than 1.00E−04 Molar. The “Percent Growth” value (DU-145; log10 conc -4 Molar) was 26%, the “Percent Growth” value (DU-145; log10 conc -5 Molar) was 43% and the “Percent Growth” value (DU-145; log10 conc -6 Molar) was 84%. For the same compound, the “Percent Growth” value (DU-145; log10 conc -7 Molar) was 105%, the “Percent Growth” value (DU-145; log10 conc -8 Molar) was 105% and the GI50 (DU-145; Homo sapiens) was 6.84 µM. It also gave a CC50 (DU-145; [4]) greater than 100 µM, a GI50 (MC-F7; Homo sapiens, MCF7) of 0.821 µM and a CC50 (MC-F7; Homo sapiens, MCF7, MC-F7, read-out: LC50 (the source's name)) greater than 100 µM. The TGI (MC-F7; MC-F7) was greater than 1.00E−04 Molar, the “Percent Growth” value (MC-F7; MC-F7, log10 conc -4 Molar) was 5% and the “Percent Growth” value (MC-F7; MC-F7, log10 conc -5 Molar) was 19%. For the same compound, the “Percent Growth” value (MC-F7; MC-F7, log10 conc -6 Molar) was 46%, the “Percent Growth” value (MC-F7; MC-F7, log10 conc -7 Molar) was 93% and the “Percent Growth” value (MC-F7; MC-F7, log10 conc -8 Molar) was 97%. It also gave a TGI (MDA-N) greater than 1.00E−04 Molar, a GI50 (MDA-N; Homo sapiens) of 1.97 µM and a CC50 (MDA-N; [4]) greater than 100 µM. For the same compound, the “Percent Growth” value (MDA-N; log10 conc -4 Molar) was 22%, the “Percent Growth” value (MDA-N; log10 conc -5 Molar) was 33% and the “Percent Growth” value (MDA-N; log10 conc -6 Molar) was 57%. The “Percent Growth” value (MDA-N; log10 conc -7 Molar) was 90% and the “Percent Growth” value (MDA-N; log10 conc -8 Molar) was 96%.
